Source: PubChem BioAssay (NCI)
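Each compound was tested at five concentrations against cells in 96-well plates for 48 hours. TGI: total growth inhibition.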

Key:
Test in all cases: NCI tumour cell line growth inhibition, 48 h
ACHN renal = system: ACHN renal
BT-549 breast = system: BT-549 breast
CAKI-1 renal = system: CAKI-1 renal
DU-145 prostate = system: DU-145 prostate
EKVX NSCLC = system: EKVX NSCLC
HCT-116 colon = system: HCT-116 colon
HT29 colon = system: HT29 colon
K-562 leukemia = system: K-562 leukemia
MCF7 breast = system: MCF7 breast
MDA-N = system: MDA-N
NCI-H226 lung = system: NCI-H226 lung
SF-268 CNS = system: SF-268 CNS
SF-539 CNS = system: SF-539 CNS
SK-MEL-2 melanoma = system: SK-MEL-2 melanoma
SK-OV-3 ovarian = system: SK-OV-3 ovarian
SW-620 colon = system: SW-620 colon
UACC-62 melanoma = system: UACC-62 melanoma

`CC(=O)N(CCc1ccccc1)C(C#N)c1ccc(OCCCCCCCCCCOc2ccc(C(C#N)N(CCc3ccccc3)C(C)=O)cc2)cc1` (stereo unspecified) showed a TGI (ACHN renal) greater than 100 µM, a TGI (BT-549 breast) of 98.6 µM and a TGI (CAKI-1 renal) greater than 100 µM. It also gave a TGI (DU-145 prostate) greater than 100 µM, a TGI (EKVX NSCLC) greater than 100 µM and a TGI (HCT-116 colon) greater than 100 µM. It also gave a TGI (HT29 colon) greater than 100 µM, a TGI (K-562 leukemia) greater than 100 µM and a TGI (MCF7 breast) greater than 100 µM. It also gave a TGI (MDA-N) greater than 100 µM, a TGI (NCI-H226 lung) of 66.9 µM and a TGI (SF-268 CNS) of 59.7 µM. The TGI (SF-539 CNS) was greater than 100 µM, the TGI (SK-MEL-2 melanoma) was greater than 100 µM and the TGI (SK-OV-3 ovarian) was greater than 100 µM. It also gave a TGI (SW-620 colon) greater than 100 µM and a TGI (UACC-62 melanoma) greater than 100 µM.
For `N#Cc1c(Cl)/c(=C/O)c(=O)n2c1nc1ccccc12`, the TGI (ACHN renal) was greater than 100 µM, the TGI (BT-549 breast) was greater than 100 µM and the TGI (CAKI-1 renal) was greater than 100 µM. It also gave a TGI (DU-145 prostate) greater than 100 µM, a TGI (EKVX NSCLC) greater than 100 µM and a TGI (HCT-116 colon) greater than 100 µM. The TGI (HT29 colon) was greater than 100 µM, the TGI (K-562 leukemia) was greater than 100 µM and the TGI (MCF7 breast) was greater than 100 µM. The TGI (MDA-N) was greater than 100 µM, the TGI (NCI-H226 lung) was 52 µM and the TGI (SF-268 CNS) was greater than 100 µM. It also gave a TGI (SF-539 CNS) greater than 100 µM, a TGI (SK-OV-3 ovarian) greater than 100 µM and a TGI (SW-620 colon) greater than 100 µM. The TGI (UACC-62 melanoma) was greater than 100 µM.
Work on `COc1ccc(C2=C(N)c3c(OC)cccc3C2=O)cc1` yielded a TGI (BT-549 breast) greater than 100 µM, a TGI (CAKI-1 renal) greater than 100 µM and a TGI (DU-145 prostate) greater than 100 µM. It also gave a TGI (EKVX NSCLC) greater than 100 µM, a TGI (HCT-116 colon) greater than 100 µM and a TGI (HT29 colon) greater than 100 µM. For the same compound, the TGI (K-562 leukemia) was greater than 100 µM, the TGI (MCF7 breast) was greater than 100 µM and the TGI (MDA-N) was greater than 100 µM. For the same compound, the TGI (NCI-H226 lung) was greater than 100 µM, the TGI (SF-268 CNS) was greater than 100 µM and the TGI (SF-539 CNS) was 41.3 µM. The TGI (SK-MEL-2 melanoma) was greater than 100 µM, the TGI (SK-OV-3 ovarian) was greater than 100 µM and the TGI (SW-620 colon) was greater than 100 µM. The TGI (UACC-62 melanoma) was greater than 100 µM.
`CCC1=CC2Cc3nc4cc(Cl)ccc4c(N)c3C(C1)C2` (stereo unspecified) showed a TGI (ACHN renal) of 26.7 µM, a TGI (BT-549 breast) of 35.4 µM and a TGI (CAKI-1 renal) of 8.38 µM. It also gave a TGI (DU-145 prostate) of 28.9 µM, a TGI (EKVX NSCLC) of 11.6 µM and a TGI (HCT-116 colon) of 9.77 µM. For the same compound, the TGI (HT29 colon) was 10.8 µM, the TGI (K-562 leukemia) was 7.57 µM and the TGI (MCF7 breast) was 17.6 µM. The TGI (MDA-N) was 18 µM, the TGI (NCI-H226 lung) was 5.73 µM and the TGI (SF-268 CNS) was 16.9 µM. For the same compound, the TGI (SF-539 CNS) was 28.8 µM, the TGI (SK-MEL-2 melanoma) was 21.2 µM and the TGI (SK-OV-3 ovarian) was 25.9 µM. The TGI (SW-620 colon) was 36 µM and the TGI (UACC-62 melanoma) was 18.4 µM.
`CC1(C)CCCCCCC2OC2CCCCCC(C)(C)C1=O` (stereo unspecified) was tested, and the TGI (ACHN renal) was greater than 65 µM, the TGI (BT-549 breast) was greater than 76.6 µM and the TGI (CAKI-1 renal) was greater than 100 µM. The TGI (DU-145 prostate) was greater than 100 µM, the TGI (EKVX NSCLC) was greater than 100 µM and the TGI (HCT-116 colon) was greater than 100 µM. For the same compound, the TGI (HT29 colon) was greater than 60.5 µM, the TGI (K-562 leukemia) was greater than 82.6 µM and the TGI (MCF7 breast) was greater than 73.3 µM. The TGI (MDA-N) was greater than 100 µM, the TGI (NCI-H226 lung) was greater than 94.4 µM and the TGI (SF-268 CNS) was greater than 100 µM. The TGI (SF-539 CNS) was greater than 100 µM, the TGI (SK-MEL-2 melanoma) was greater than 65.4 µM and the TGI (SK-OV-3 ovarian) was greater than 100 µM. The TGI (SW-620 colon) was greater than 100 µM and the TGI (UACC-62 melanoma) was greater than 100 µM.
Compound `O=c1c2cc([N+](=O)[O-])ccc2n2n1Cc1ccccc1C2` has a TGI (ACHN renal) greater than 100 µM, a TGI (BT-549 breast) greater than 100 µM and a TGI (CAKI-1 renal) greater than 100 µM. The TGI (DU-145 prostate) was greater than 100 µM, the TGI (EKVX NSCLC) was greater than 100 µM and the TGI (HCT-116 colon) was greater than 100 µM. The TGI (HT29 colon) was greater than 100 µM, the TGI (K-562 leukemia) was greater than 100 µM and the TGI (MCF7 breast) was greater than 100 µM. The TGI (MDA-N) was greater than 100 µM, the TGI (NCI-H226 lung) was greater than 100 µM and the TGI (SF-268 CNS) was greater than 100 µM. The TGI (SF-539 CNS) was greater than 100 µM, the TGI (SK-OV-3 ovarian) was greater than 100 µM and the TGI (SW-620 colon) was greater than 100 µM. The TGI (UACC-62 melanoma) was greater than 100 µM.
In the case of `COc1ccc2c(c1)CCc1[nH]c3ccccc3c1CCCC2`, the TGI (ACHN renal) is reported as greater than 10 µM, the TGI (BT-549 breast) is reported as greater than 10 µM and the TGI (CAKI-1 renal) is reported as greater than 10 µM. For the same compound, the TGI (DU-145 prostate) was greater than 10 µM, the TGI (HCT-116 colon) was greater than 10 µM and the TGI (HT29 colon) was greater than 10 µM. The TGI (K-562 leukemia) was greater than 10 µM, the TGI (MCF7 breast) was greater than 10 µM and the TGI (MDA-N) was greater than 10 µM. For the same compound, the TGI (SF-268 CNS) was greater than 10 µM, the TGI (SF-539 CNS) was greater than 10 µM and the TGI (SK-OV-3 ovarian) was greater than 10 µM. For the same compound, the TGI (SW-620 colon) was greater than 10 µM and the TGI (UACC-62 melanoma) was greater than 10 µM.
In the case of `Cn1c(Nc2ccccc2)c(C=Nc2ccccc2)c(=O)n(C)c1=O`, the TGI (BT-549 breast) is reported as greater than 100 µM, the TGI (DU-145 prostate) is reported as greater than 100 µM and the TGI (HCT-116 colon) is reported as greater than 100 µM. For the same compound, the TGI (HT29 colon) was greater than 100 µM, the TGI (K-562 leukemia) was greater than 100 µM and the TGI (MCF7 breast) was greater than 100 µM. The TGI (MDA-N) was greater than 100 µM, the TGI (SF-268 CNS) was greater than 100 µM and the TGI (SF-539 CNS) was greater than 100 µM. The TGI (SK-MEL-2 melanoma) was greater than 100 µM, the TGI (SK-OV-3 ovarian) was greater than 100 µM and the TGI (SW-620 colon) was greater than 100 µM. The TGI (UACC-62 melanoma) was greater than 100 µM.
`CCOC(=O)C1C(c2ccc(OC)cc2)c2c([nH][nH]c2=O)CC1(O)OCC` (stereo unspecified) gave a TGI (ACHN renal) greater than 100 µM, a TGI (BT-549 breast) greater than 100 µM and a TGI (CAKI-1 renal) greater than 100 µM. For the same compound, the TGI (DU-145 prostate) was greater than 100 µM, the TGI (EKVX NSCLC) was greater than 100 µM and the TGI (HCT-116 colon) was greater than 100 µM. For the same compound, the TGI (HT29 colon) was greater than 100 µM, the TGI (MCF7 breast) was greater than 100 µM and the TGI (MDA-N) was greater than 100 µM. For the same compound, the TGI (SF-268 CNS) was greater than 100 µM, the TGI (SF-539 CNS) was greater than 100 µM and the TGI (SK-MEL-2 melanoma) was greater than 100 µM. The TGI (SW-620 colon) was greater than 100 µM and the TGI (UACC-62 melanoma) was greater than 100 µM.
`C/C(=N/O)c1cccc(Nc2nc3ccc(Cl)cc3c3[nH]c4ccccc4c23)c1` showed a TGI (ACHN renal) of 4.5 µM, a TGI (BT-549 breast) of 11.6 µM and a TGI (CAKI-1 renal) of 6.11 µM. The TGI (DU-145 prostate) was 4.41 µM, the TGI (HCT-116 colon) was 2.66 µM and the TGI (HT29 colon) was 5.36 µM. The TGI (K-562 leukemia) was greater than 100 µM, the TGI (MCF7 breast) was 2.75 µM and the TGI (MDA-N) was 4.05 µM. The TGI (NCI-H226 lung) was 9.82 µM, the TGI (SF-268 CNS) was 5.15 µM and the TGI (SF-539 CNS) was 12.3 µM. It also gave a TGI (SK-MEL-2 melanoma) of 3.88 µM, a TGI (SK-OV-3 ovarian) of 13.6 µM and a TGI (SW-620 colon) of 5.03 µM. For the same compound, the TGI (UACC-62 melanoma) was 3.94 µM.
Work on `COc1ccc2cc(/C=N\NC(=O)Nc3cccc4ccccc34)ccc2c1` yielded a TGI (ACHN renal) of 76.6 µM, a TGI (BT-549 breast) greater than 100 µM and a TGI (CAKI-1 renal) of 47.6 µM. For the same compound, the TGI (DU-145 prostate) was greater than 100 µM, the TGI (EKVX NSCLC) was greater than 100 µM and the TGI (HCT-116 colon) was 30.5 µM. For the same compound, the TGI (HT29 colon) was greater than 100 µM, the TGI (K-562 leukemia) was 36.5 µM and the TGI (MCF7 breast) was greater than 100 µM. It also gave a TGI (MDA-N) greater than 100 µM, a TGI (NCI-H226 lung) greater than 100 µM and a TGI (SF-268 CNS) greater than 100 µM. For the same compound, the TGI (SF-539 CNS) was greater than 100 µM, the TGI (SK-MEL-2 melanoma) was greater than 100 µM and the TGI (SW-620 colon) was greater than 100 µM.
